The record followed here is patent publication US20150344407A1, “FENDILINE DERIVATIVES AND METHODS OF USE THEREOF” (THE BOARD OF REGENTS OF THE UNIVERSITY OF TEXAS SYSTEM, priority 2012, published 2015).

pEC50: −log10 of the molar value.

In one assay the test system is MOH cells. Put plainly: Proliferation assay, pancreatic cancer cell line MOH. The conditions noted are these: 72 h, CyQUANT, oncogenic mutant K-Ras. It counts as cell-based. From the text: (§1) FIG. 5A-5E—Concentration-response curves of 42, 68, 70, 72 and 73 on proliferation of five pancreatic cancer cell lines. BxPC-3 expresses wild type K-Ras, whereas the others express oncogenic mutant K-Ras. […] EC50 values for their inhibitory effect are tabulated. ND means that the EC50 value could not be determined within the dose range tested. See also Table 5.
(§2) Cell lines: Madine Darby Canine Kidney epithelial cells (MDCK) stably co-expressing mGFP-tagged full length oncogenic mutant K-Ras (GFP-K-RasG12V) and mCherry-tagged to the amino acids 179-189 of H-RasC181S, C184S (mCherry-CAAX, localizes primarily to endomembranes) were grown in DMEM-high glucose/sodium pyruvate/10% FBS. The medium was supplemented with 1× Penicillin/Streptomycin for fluorescence microscopy assays, to avoid any microbial contamination from the test compounds added. KLE and Hec50 cells were maintained in DMEM-F-12 medium supplemented with 10% FBS. Hec-1A and Hec-1B cells were grown in McCoy's 5a medium supplemented with 10% FBS. ESS-1 cells were grown in RPMI 1640 medium supplemented with 20% FBS. MPanc96 cells were grown in DMEM supplemented with 10% FBS, MiaPaCa-2 cells in DMEM supplemented with 10% FBS and 2.5% horse serum and all other cell lines were grown in RPMI 1640 supplemented with 10% FBS. All cancer cell media were supplemented with 1× Penicillin/Streptomycin. All cell lines were grown at 37° C. with 5% CO2.
(§3) Proliferation Assay: Cells were seeded in 96-well plates. After 24 h, fresh growth medium supplemented with 0.1% vehicle (DMSO), or various concentrations of drugs was added and cells were grown for 72 h. Cell numbers were quantified using the CyQUANT® Cell Proliferation Assay Kit (Life Technologies), according to the manufacturer's protocol. Fluorescence measurement was used as a measure of live cell number.
(§4) Based upon the concentration-response curves of five different compounds (42, 68, 70, 72, and 73) were tested for their effects on cell proliferation of five different pancreatic cell lines. These experiments were carried out as described in the Methods and Materials section.

The test system of the next assay is Hec-1A cells. In words: Proliferation assay, endometrial cancer cell line Hec-1A. The format is cell-based. Conditions: Homo sapiens; 72 h, CyQUANT; Hec-1A expresses oncogenic mutant K-Ras.
From the text: (§5) FIG. 4A-4E—Concentration-response curves of 42, 68, 70, 72 and 73 on proliferation of five endometrial cancer cell lines. KLE and ESS-1 express wild type K-Ras and Hec-1A, Hec-1B and Hec50 express oncogenic mutant K-Ras. […] EC50 values for their inhibitory effect are tabulated. ND means that the EC50 value could not be determined within the dose range tested. See also Table 4.
as §2, §3
(§6) Based upon the concentration-response curves of five different compounds (42, 68, 70, 72, and 73) were tested for their effects on cell proliferation of five different endometrial cell lines. These experiments were carried out as described in the Methods and Materials section.

Another assay concerns HPAC cells. Put plainly: Proliferation assay, pancreatic cancer cell line HPAC. The format is cell-based. Conditions: Homo sapiens, 72 h, CyQUANT, oncogenic mutant K-Ras.
From the text: as §1, §2, §3, §4

For the next assay, the system named is MiaPaCa-2 cells. In words: Proliferation assay, pancreatic cancer cell line MiaPaCa-2. It counts as cell-based. Conditions: Homo sapiens, MIA PaCa-2; 72 h, CyQUANT; oncogenic mutant K-Ras.
From the text: as §1, §2, §3, §4

Another assay concerns MPanc-96 cells. In words: Proliferation assay, pancreatic cancer cell line MPanc-96. It counts as cell-based. Conditions: MPANC96; 72 h, CyQUANT; oncogenic mutant K-Ras.
From the text: as §1, §2, §3, §4

Another assay deals with Hec50 cells. In words: Proliferation assay, endometrial cancer cell line Hec50. The format is cell-based. The conditions noted are these: 72 h, CyQUANT; Hec50 expresses oncogenic mutant K-Ras.
From the text: as §5, §2, §3, §6

For another assay, the system named is Hec-1B cells. In words: Proliferation assay, endometrial cancer cell line Hec-1B. It counts as cell-based. Conditions: Homo sapiens; 72 h, CyQUANT; Hec-1B expresses oncogenic mutant K-Ras; ND = EC50 could not be determined within the dose range tested.
From the text: as §5, §2, §3
Based upon the concentration-response curves of five different compounds (42, 68, 70, 72, and 73) were tested for their effects on cell proliferation of five different endometrial cell lines. […]

A further assay relates to chemotaxis. Put plainly: Inhibition of chemotaxis. The conditions noted are these: preliminary data.
For assay [1], the target named is T1, GFP-tagged K-rasG12V (oncogenic K-ras) in MDCK cells (Homo sapiens, UniProt P01116, G12V).
T1 construct: mGFP-tagged full length oncogenic mutant K-Ras (GFP-K-RasG12V); expressed in transfected cells
In words: K-ras mislocalization, confocal fluorescence microscopy with densitometric analysis. The format is cell-based, canine. The conditions noted are these: 48 hours, MDCK cells stably expressing GFP-tagged K-rasG12V, normalized to vehicle-treated control. How it is done:
FIGS. 1 & 2—Representative images showing degree of K-ras mislocalization with compound treatment (images corresponds with column 3 of Table 2). MDCK cells stably expressing GFP-tagged K-rasG12V were treated with vehicle or compound (4 μM) for 48 hours and fixed with 4% paraformaldehyde. The coverslips were mounted in Mowiol and imaged by confocal microscopy (Nikon A1) using a 60× objective. The number above each image corresponds the fendiline derivative code.
(§7) To determine the effect of compounds on localization of K-ras, Mardine Darby canine kidney epithelial (MDCK) cells stably expressing GFP-tagged K-rasG12V (oncogenic K-ras) grown on cover slips were treated with vehicle or compound (4 μM) for 48 hours and fixed with 4% paraformaldehyde. The coverslips were mounted in Mowiol and imaged by confocal microscopy (Nikon A1) using a 60× objective. Images were analyzed by ImageJ software. Densitometric analysis was performed on images to determine the degree of K-ras mislocalization. To determine the effect of compounds on K-ras function, MDCK cells stably expressing GFP-tagged K-rasG12V were treated with vehicle or compound (4 μM) for 48 hours. Following treatment, whole cell lysates were prepared and subjected SDS-PAGE and western blotting to quantify the level of phosphorylated ERK, a protein activated downstream of K-ras. All calculations were normalized to vehicle-treated control.
Fluorescence microscopy: 2×10^5 or 1×10^5 cells/well were seeded in 6- or 12-well cell culture plates, respectively, containing glass coverslips. 24 h after seeding, fresh medium containing 1% vehicle (Dimethyl sulfoxide, DMSO) or 4 μM test compound (1:100 dilution, such that DMSO was 1%) was added and incubated for 48 h, following which the cells were fixed with 4% paraformaldehyde and coverslips were mounted in Mowiol. Cells were imaged in the GFP wavelength (488 nm) using a confocal microscope (Nikon A1) with 60× objective. Images were saved in tagged imaged file format (tiff) and analyzed by ImageJ software. The densitometric ratio of plasma membrane localized K-Ras versus total K-Ras was calculated and normalized to vehicle-treated control.

Assay [2] deals with phosphorylated ERK, a protein activated downstream of K-ras. Put plainly: Western immunoblotting for pERK (inhibition of ERK activation). It counts as cell-based, canine. The conditions noted are these: Canis lupus familiaris; 4 μM compound, 48 hours, MDCK cells stably expressing GFP-tagged K-rasG12V; whole cell lysates; normalized to vehicle-treated control; read-out: % Inhibition of ERK activation when treated with 4 μM compound. How it is done: as §7
Western Immunoblotting for pERK: 2×10^5 cells/well were seeded in 6-well cell culture plates. 24 h after seeding, fresh medium containing 1% vehicle (DMSO) or 4 μM test compound (1:100 dilution, such that DMSO was 1%) was added and incubated for 48 h. Cells were lysed in Buffer B (50 mM Tris [pH 7.5], 75 mM NaCl, 25 mM NaF, 5 mM MgCl2, 5 mM EGTA, 1 mM dithiothreitol, 100 μM NaVO4, 1% Nonidet P-40 plus protease inhibitors). SDS-PAGE and immunoblotting with the anti-phospho-p44/42 mitogen-activated protein kinase (MAPK) (ERK1/2) antibody was performed using 20 μg of each whole cell lysate. Signal was detected by enhanced chemiluminescence (SuperSignal; Pierce, Thermo Fisher Scientific, Rockford, Ill.) and imaged by FluorChemQ (Alpha Inotech, San Leandro, Calif.). Quantification of intensities was performed using FluorChemQ software. Results were normalized to vehicle-treated control.
Background: Immunoblotting shows a protein as a band on a membrane.

Consider `C(CN(CC=C(c1ccccc1)c1ccccc1)[C@@H]1CCc2ccccc21)=C(c1ccccc1)c1ccccc1` [Compound 73, (R)—N,N-bis(3,3-diphenylallyl)-2,3-dihydro-1H-inden-1-amine], for which the pEC50 in the assay with MOH cells was 6.21; with Hec-1A cells, 7.71; in the assay with HPAC cells it was 6.46; in the assay on MiaPaCa-2 cells, 6.05; in the assay on MPanc-96 cells it was 6.62; in the assay on Hec50 cells, 6.39. The pEC50 in the assay with Hec-1B cells is 6.48.

With `CC(NCCC(c1ccccc1)c1ccccc1)c1ccccc1` (centres unmarked) [Fendiline, 3,3-diphenyl-N-(1-phenylethyl)propan-1-amine], the Inhibition of chemotaxis entry with chemotaxis is “effective at inhibiting chemotaxis at picomolar and nanomolar concentrations”. Also, in assay [1], the “% Mislocalization of K-ras when treated with 4 μM compound” value was determined as 20.53%. The inhibition at 4 µM in [2] was 7.37%.

Turning to `COC(=O)[C@H](NCC=C(c1ccccc1)c1ccccc1)c1ccccc1` [Compound 42, (R)-methyl 2-((3,3-diphenylallyl)amino)-2-phenylacetate], the negative-log EC50 (pEC50) in the assay with MOH cells is 5.99; in the assay on Hec-1A cells, 8.13; in the assay with HPAC cells, 6.02; in the assay on MiaPaCa-2 cells, 5.62; in the assay with MPanc-96 cells, 5.95; in the assay on Hec50 cells, 6.37. For the same compound, in the assay with Hec-1B cells, the pEC50 was 6.28. Also, the inhibition at 4 µM in [1] (4 μM compound, read-out: % Mislocalization of K-ras when treated with 4 μM compound) was 50%; in [2], 44%.

As for `C[C@H](c1cccc(Cl)c1)N(CC=C(c1ccccc1)c1ccccc1)CC=C(c1ccccc1)c1ccccc1` [Compound 70, (R)—N-(1-(3-chlorophenyl)ethyl)-N-(3,3-diphenylallyl)-3,3-diphenylprop-2-en-1-amine], the negative logarithm of the EC50 (pEC50) in the assay on MOH cells is 6.18; in the assay on Hec-1A cells, 7.42; in the assay on HPAC cells, 6.66; in the assay with MiaPaCa-2 cells it was 5.83; in the assay on MPanc-96 cells it was 6.09; with Hec50 cells it was 5.48. The pEC50 in the assay on Hec-1B cells is 4.97.

By pEC50 is commonly meant the negative decadic logarithm of the EC50, by convention in mol/L. Low values mean a large EC50, high ones a small EC50.
